{"source": "patent US20100310579A1", "about": "“METHOD FOR INHIBITING ANGIOGENESIS OR FOR TREATMENT OF CANCER” (Faron Ventures Oy, priority 2007, published 2010)", "assay_type_in_all_cases": "in vivo", "key": {"EL-4 lymphoma cells": {"test_system": "EL-4 lymphoma cells", "assay": "EL-4 lymphoma growth in mice (tumor volume)", "details": "wt mice, s.c. EL-4 lymphoma, treated vs control, FIG. 5b", "experimental": "FIG. 5. Defective migration of myeloid-derived suppressor cells (MDSC), angiogenesis and growth of lymphoma in VAP-1 deficient mice (a, b). EL-4 lymphoma cells were injected subcutaneously into (a) wt and VAP-1 deficient mice and (b) control and SZE5302 treated mice, and the growth of the lymphomas (volume) was measured kinetically. VAP-1 activity in control and SZE5302 treated mice was measured using enzyme assay (c) Immunohistochemical stainings of (d) VAP-1 and (e) CD31 expression in tumor vessels in EL-4 lymphoma grown in wt and VAP-1 −/− mice. Some positive vessels are pointed out by arrows. Lymphoma cells also express low levels of CD31. Bar 50 μm. The numbers of (f) CD31 positive vessels and (g) CD11b positive cells was determined using immunohistochemistry. […]\nIn the melanoma model, age- and sex-matched VAP-1 deficient and wt C57/B16 mice were used (Stolen, C. M., F. Marttila-Ichihara, K. Koskinen, G. G. Yegutkin, R. Turja, P. Bono, M. Skurnik, A. Hanninen, S. Jalkanen, and M. Salmi. 2005. Immunity 22:105-115). […] Immediately thereafter, a substrate for the luciferase (D-luciferin sodium salt, Synchem, Kassel, Germany; 150 mg/kg i.p.) was injected, and 10 min later the light generated was recorded using bioluminescence imaging (IVIS 50 workstation, Xenogen). The signal intensities were quantified as the photon counts using the Living Image software (Xenogen). […]"}, "[1]": {"test_system": "myeloid-derived suppressor cells (MDSC) in melanoma tumors", "assay": "CD11b-positive myeloid-derived suppressor cells in melanoma tumors (microscopic counting)", "details": "wt mice treated with inhibitor vs vehicle, FIG. 6", "source_text": "FIG. 6. VAP-1 selectively supports recruitment of pro-angiogenic myeloid-derived suppressor cells in melanoma tumors. CD11b-positive cells were quantified by microscopic counting in wt and VAP-1 deficient mice and in wt treated with vehicle or SZE5302 inhibitor. Data (mean±SEM) are from 9 mice per group, ** p<0.01.\n(§1) At the end of the experiment, tumors were excised from the mice and processed for immunohistochemical staining. Anti-mouse CD31 mAb (MEC13.3, IHC formula, 1:300 dilution; Pharmingen) and a negative control mAb (9B5) were used for indirect immunoperoxidase stainings. The sections were counterstained with hematoxylin-eosin, and mounted in Depex. In certain cases, formalin-fixed, paraffin embedded sections were stained with HE. The CD31-positive vessels or vessels in HE-stained sections were enumerated by counting the number of vessels in the whole tumor area using a 400× magnification. Sections were also stained with CD11b and Gr-1 antibodies."}, "[2]": {"test_system": "CD31-positive vessels in melanoma tumors", "assay": "CD31-positive vessels in melanoma tumors (immunohistochemistry, neoangiogenesis)", "details": "melanoma tumors resected d10, treated vs control mice, FIG. 3", "experimental": "(§2) The tumor model was established as above. The animals were treated every second day with anti-VAP-1 mAb (7-106+7-88, 100 μg each/mouse) or with a negative control mAb HB151 (200 μg/mouse, ip) (Merinen, M., H. Irjala, M. Salmi, I. Jaakkola, A. Hanninen, and S. Jalkanen. 2005. e. Am. J. Pathol. 166:793-800). The antibodies were produced in serum and BSA-free medium, concentrated, and dialyzed against PBS. Another group of mice were treated with the VAP-1 inhibitor SZE 5302 (50 mg/kg, ip, daily) or with the vehicle (saline) (Koskinen, K., P. J. Vainio, D. J. Smith, M. Pihlavisto, S. Yla-Herttuala, S. Jalkanen, and M. Salmi. 2004. Blood 103:3388-3395). The growth of the tumor was then followed using bioluminescence imaging or volume measurements as described above.\nas §1, with “Sections were also stained with CD11b and Gr-1 antibodies.” left out"}, "[3]": {"test_system": "Luciferase-containing B16 melanoma cells", "assay": "B16 melanoma tumor growth in mice (bioluminescence imaging, tumor volume)", "experimental": "In the melanoma model, age- and sex-matched VAP-1 deficient and wt C57/B16 mice were used (Stolen, C. M., F. Marttila-Ichihara, K. Koskinen, G. G. Yegutkin, R. Turja, P. Bono, M. Skurnik, A. Hanninen, S. Jalkanen, and M. Salmi. 2005. Immunity 22:105-115). Luciferase-containing B16 melanoma cells were purchased from Xenogen. Tumor cells (4×10^5 in 200 μl) were injected subcutaneously into the flanks of isoflurane anesthesized mice. Immediately thereafter, a substrate for the luciferase (D-luciferin sodium salt, Synchem, Kassel, Germany; 150 mg/kg i.p.) was injected, and 10 min later the light generated was recorded using bioluminescence imaging (IVIS 50 workstation, Xenogen). The signal intensities were quantified as the photon counts using the Living Image software (Xenogen). […] The growth of tumors was then followed for 10 d, and at the indicated time points, the animals were re-subjected to the bioluminescence imaging. The diameter of the tumor was also measured using an electronic caliber (Mitutoyo, Japan). The volume of the tumor was approximated using the formula: 0.5×(longest diameter)×(shortest diameter). In the lymphoma model, EL-4 cells were injected into the abdominal area (10×10^6 cells/mouse in 200 μl of RPMI1640. tumor growth was followed using the electronic caliber.\nas §2"}}}
{"compound": "CN(N)[C@H]1Cc2ccccc2[C@@H]1O", "note": "[SZE5302]", "values": [{"measurement": "tumor growth (lymphoma volume)", "setting": "EL-4 lymphoma cells", "result": "strongly inhibited tumor growth"}, {"measurement": "number of MDSC in the melanomas", "setting": "[1]", "result": "strongly reduced"}, {"measurement": "number of CD31+ positive (new) vessels in the tumor", "setting": "[2]", "result": "significantly fewer"}, {"measurement": "tumor volume (physical measurement)", "setting": "[3]; day 7, wt mice, B16 melanoma, 50 mg/kg ip daily", "result": "significant reduction"}, {"measurement": "melanoma size", "setting": "[3]; day 10, wt mice, B16 melanoma, 50 mg/kg ip daily", "result": "clearly smaller"}, {"measurement": "tumor growth", "setting": "[3]; wt mice, s.c. B16 melanoma, 50 mg/kg ip daily vs vehicle, FIG. 2B", "result": "significant decrease in tumor growth"}]}
